Like-named read-outs stand apart in the source and are kept apart here.
Legend:
[1] = tested on: nicotine spasm and lethality; assay: Inhibition of nicotine spasm and lethality on mice (Stone); type: in vivo; conditions: Table VIII; for ED50: Mus musculus, oral, 1 h before nicotine 1.4 mg/kg i.v.; for Therapeutical index: nicotine spasm and lethality, LD50/ED50
From the text: [Stone, C. C., Mecklenburg, K. L., Torchiana, M. L.: Arch. Int.

in vivo = conditions: mouse, in vivo, po
Procedure: Male and female white mice (CFLP strain, 18-22 g) are used, 10 animals per dose. The test compounds are administered orally in a volume of 20 ml/kg. After administration the mice are observed for a period of 7 days. The animals are kept in plastic boxes, on wood litter, at room temperature. The animals receive standard mouse fodder and tap water ad libitum.

pentetrazole spasm = assay: Inhibition of pentetrazol spasm on mice; conditions: for ED50: Mus musculus, po; for Therapeutical index: Table V, pentetrazole spasm, LD50/ED50
Procedure: The modified method of Benziger and Hane is used on white mice. Groups consisting of 6 animals are used for each dose. […] The test compounds are administered orally one hour before the treatment with pentetrazole; in the control group the animals obtain the carrier orally at the same points of time.
The therapeutical index data disclosed in the above Tables are calculated by means of the following equation: [formula]

motility = assay: animal or person; type: in vivo; conditions: for ED50: Mus musculus, po; for Therapeutical index: Table II, motility inhibition, LD50/ED50
Procedure: The test is accomplished according to the method of Borsy et al. in a 10-channel Dews system equipment, whereby 3 mice are used per channel. The test compound or the carrier, respectively, is administered orally, and one hour after the said treatment the animals are placed into the apparatus and the number of the interruptions of infrared radiation is registered for 30 minutes.
The results are summarized in Table II and documented by means of suitable statistics for each experiment.
[J. Borsy, E. Csanyi, I. Lazar: Arch. Int. Pharmacodyn. 124, 1 (1960)].

yohimbin toxicity = assay: animal or person; conditions: for ED50: Mus musculus; for Therapeutical index: Table IV, yohimbin toxicity, LD50/ED50
Procedure: The test is carried out according to the method of Quinton. Groups consisting of 10 mice are used for each dose. The animal groups are treated with the suitable doses of the test compounds while the control group is treated with a carrier. An hour after the treatment a sublethal dose of yohimbin is administered intraperitoneally in a volume of 20 ml/kg. The perished animals are counted after 1 and 24 hours.

acetic acid writhing = assay: Acetic acid "writhing test" on mice (Newbould); type: in vivo, white mice; conditions: for ED50: Mus musculus; for Therapeutical index: acetic acid writhing, LD50/ED50
Procedure: In the period between the 5th and 10th minutes following the administration of acetic acid the number of the characteristic "writhing" responses is counted for each animal and the "total writhing number" (within 5 minutes) is expressed as the percentage of the value obtained for the control animals. The mice are treated with the test compound and the carrier, respectively, orally 1 hour before the administration of acetic acid. 12 animals are used per dose.
[Newbould, B. D.: Brit.

hexobarbital narcosis = assay: Hexobarbital narcosis potentiating effect; conditions: for ED50: Mus musculus, po; for Therapeutical index LD50 /ED50: Table I, hexobarbital narcosis
Procedure: The test is carried out on white mice. Groups consisting of six mice are used for each dose and test compound. The test compound is administered orally and an hour after this treatment narcosis is induced by means of a 40 mg/kg i.v. dose of hexobarbital. The control group receives carrier instead of the test compound.
Those mice are considered to be having a positive reaction which show a narcosis time at least 2.5 times longer than that of the control group. The ED50 values thus transformed are calculated.

ulcus secretion = assay: animal or person; type: in vivo; conditions: Rattus norvegicus, po, 5 h
Procedure: The test is carried out according to the method of Nakamura on rats (Wistar strain) weighing 150-230 g and fasted for 48 hours. Each animal group consists of 4 male and 4 female rats. On the day of the experiment the pylorus of the animals is bound and the corresponding dose of the test compound is administered orally immidiately after operation. The animals are killed with ether 5 hours after the operation, their stomach is removed, cut along the large curve and placed on plastic plates.

[2] = Table VII, oral, 1 h before acetic acid i.p., read-out: ED50

Row | SMILES | LD50 at 168 h (in vivo) | ED50 (pentetrazole spasm) | Therapeutical index (pentetrazole spasm) | ED50 (motility) | Therapeutical index (motility) | Therapeutical index (acetic acid writhing; Table VII) | further results
1 | CN1CCN(CCCO/N=C2C=C(/C=C/c3ccccc3)CC(C)(C)C/2)CC1 [Example 2, 5,5-Dimethyl-3-(E)-phenyl-vinyl-1-(E)-(4'-methyl-1'-piperazinyl-propoxyimino)-2-cyclohexene] | 2000 mg/kg | 140 mg/kg | 14.3 | 190 mg/kg | 10.5 |  | ED50 [1]: 78 mg/kg; Therapeutical index [1]: 25.6
2 | CCN(CC)CCO/N=C1C=C(/C=C/c2ccc(OC)cc2)CC(C)(C)C/1 [Example 23, 5,5-Dimethyl-3-(E)-[(4'-methoxy-phenyl)-vinyl]-1-(E)-(2"-diethylamino-ethoxyimino)-2-cyclohexene] | 1000 mg/kg | 58 mg/kg | 17.2 |  |  |  | 
3 | COc1ccc(/C=C/C2=CC(=N/OCCCN(C)C)/CC(C)(C)C2)cc1OC [Example 10, 5,5-Dimethyl-3-(E)-[(3',4'-dimethoxy-phenyl)-vinyl]-1-(E)-(3"-dimethylamino-propoxyimino)-2-cyclohexene] | 1000 mg/kg |  |  | 60 mg/kg | 16.7 | 6.5 | ED50 (yohimbin toxicity): 40 mg/kg; Therapeutical index (yohimbin toxicity): 25; ED50 (acetic acid writhing; [2]): 153 mg/kg
4 | CC(C)N(CCO/N=C1C=C(/C=C/c2ccc(Cl)cc2)CC(C)(C)C/1)C(C)C [Example 14, 5,5-Dimethyl-3-(E)-[(4'-chloro-phenyl)-vinyl]-1-(E)-2'"-[bis-(2"-methyl-ethyl)-amino-ethoxyimino]-2-cyclohexene] | 2000 mg/kg | 70 mg/kg | 28.5 |  |  |  | 
5 | CC1(C)CC(/C=C/c2ccc(Cl)cc2)=CC(=N/OCCCN2CCOCC2)/C1 [Example 24, 5,5-Dimethyl-3-(E)-[(4'-chloro-phenyl)-vinyl]-1-(E)-(N-morpholino-propoxyimino)-2-cyclohexane] | > 1000 mg/kg | 110 mg/kg | > 9.1 |  |  |  | 
6 | CC1(C)CC(/C=C/c2ccccc2)=CC(=N/OCCN2CCCCC2)/C1 [Example 16, 5,5-Dimethyl-3-(E)-phenyl-vinyl-1-(E)-(2'-N-piperidyl-ethyl)-oxyimino-2-cyclohexene] | 1850 mg/kg | 185 mg/kg | 10.0 | 150 mg/kg | 12.3 |  | ED50 [1]: 70 mg/kg; Therapeutical index [1]: 26.4; ED50 (hexobarbital narcosis): 40 mg/kg; Therapeutical index LD50 /ED50 (hexobarbital narcosis): 46.0
7 | COc1cc(C(=S)N2CCOCC2)cc(OC)c1OC [Trithiozine, reference compound] |  |  |  |  |  |  | ED50 (ulcus secretion): ~240 mg/kg
8 | CNC1=Nc2ccc(Cl)cc2C(c2ccccc2)=[N+]([O-])C1 [Chlordiazepoxid, reference compound] | 620 mg/kg |  |  |  |  |  | ED50 (hexobarbital narcosis): 10 mg/kg; Therapeutical index LD50 /ED50 (hexobarbital narcosis): 62.0
9 | CN(C)CCCO/N=C1C=C(/C=C/c2c(Cl)cccc2Cl)CC(C)(C)C/1 [Example 7, 5,5-Dimethyl-3-[(2',6'-dichloro-phenyl)-vinyl]-1-(E)-(3"-dimethylamino-propoxyimino)-2-cyclohexene] | 2000 mg/kg | 80 mg/kg | 25.0 |  |  |  | ED50 (yohimbin toxicity): 60 mg/kg; Therapeutical index (yohimbin toxicity): 33.3; Therapeutical index [1]: 25
10 | COc1ccc(/C=C/C2=CC(=N/OCC(C)CN(C)C)/CC(C)(C)C2)cc1 (racemic) [Example 25, D,L-5,5-Dimethyl-3-(E)-[(4'-methoxy-phenyl)-vinyl]-1-(E)-(2"-methyl-3"-dimethylamino-propoxyimino)-2-cyclohexane] | 1300 mg/kg | 15.5 mg/kg | 83.9 | ~200 mg/kg | 6.5 | 65 | ED50 (acetic acid writhing; po): ~200 mg/kg
11 | CC(C)N(CCO/N=C1C=C(/C=C/c2ccccc2)CC(C)(C)C/1)C(C)C [Example 12] | 1000 mg/kg | 23 mg/kg | 43.5 |  |  | 20.0 | ED50 (acetic acid writhing; [2]): 50 mg/kg; ED50 (hexobarbital narcosis): 100 mg/kg
12 | CN(C)CCCO/N=C1C=C(/C=C/c2ccc(Cl)cc2)CC(C)(C)C/1 [Example 5, 5,5-Dimethyl-3-(E)-[(4'-chloro-phenyl)-vinyl]-1-(E)-(3"-dimethylamino-propoxyimino)-2-cyclohexene] | 2000 mg/kg | 125 mg/kg | 16.0 | 120 mg/kg | 17.0 | 12.9 | ED50 (acetic acid writhing; [2]): 155 mg/kg

— patent publication US4939142A, “Substituted styrene derivatives” (priority 1989, dated 1990)
